According to paper PMC8704880, “Secondary Metabolites with Cytotoxic Activities from Streptomyces sp. BM-8 Isolated from the Feces of Equus quagga” (Molecules, 2021):
Read-outs that look alike come from different tables or passages of the source.

What was measured:
[1] = system: HT-29 human colon cancer cell line; assay: MTT cytotoxicity assay, HT-29; type: cell-based; conditions: 48 h, read-out: IC50 (Means ± SD) HT-29
Description: (§1) The cytotoxic activity of the compounds on cancer cell lines, including HT-29, MCF-7, A375, K562, andNCM460cell lines, was measured using the MTT assay with a small modification. Briefly, cells were plated in 96-well plates at a density of 1 × 10^4 cells per well and allowed to grow overnight, then the medium was replaced with fresh RPMI1640 medium containing serially diluted compounds, and the cells were further incubated at 37 °C with 5% CO2 for 48 h. In this experiment, 1 and 6 were diluted into six different series concentrations from 10 μg/mL to 0.0097 μg/mL with 4× dilution each, while 2 and 3 were diluted from 500 μg/mL to 2.06 μg/mL, and 4, 5, and 7 from 300 μg/mL to 1.23 μg/mL with 3× dilution each. Paclitaxel, a clinical medication used as a positive control, was diluted from 100 μg/mL to 3.125 μg/mL with […]. HT-29, MCF-7, and A375 were all cultured in serum-free RPMI1640, while the K562 was cultured in DMEM containing FBS throughout this experiment. The culture medium was removed after the incubation, and then 100 μL of the 5 mg/mL MTT solution was added to each well and further incubated at 37 °C for 4 h. Finally, the supernatants were removed, and 150 μL of dimethyl sulfoxide (DMSO) was added to each well. After shaking the plates for 10 min at room temperature, the optical density value was measured spectrophotometrically at 570 nm using the microplate reader. The IC50 value (50% inhibitory concentration) was determined to evaluate the cell viability of these cell lines. In this experiment, Graph Pad Prism 5software (San Diego, CA, USA) was used to calculate the half inhibitory concentration (IC50) values. Each experiment was independently repeated at least three times and represented as the means ± standard deviation (SD).

[2] = system: A375 human malignant melanoma cell line; assay: MTT cytotoxicity assay, A375; type: cell-based; conditions: A-375, 48 h, read-out: IC50 (Means ± SD) A375
Description: as §1

[3] = system: K562 human chronic myeloid leukemia cell line; assay: MTT cytotoxicity assay, K562; type: cell-based; conditions: 48 h, read-out: IC50 (Means ± SD) K562
Description: as §1

[4] = system: MCF-7 human breast cancer cell line; assay: MTT cytotoxicity assay, MCF-7; type: cell-based; conditions: MCF7, 48 h, read-out: IC50 (Means ± SD) MCF-7
Description: as §1

[5] = system: NCM460 human normal colon epithelial cell line; assay: MTT cytotoxicity assay, NCM460; type: cell-based; conditions: 48 h, read-out: IC50 (Means ± SD) NCM460
Description: as §1

[6] = system: HT-29, MCF-7, A375, K562 and NCM460 cell lines; assay: MTT cytotoxicity assay, whole panel of cell lines; type: cell-based, human; conditions: for cytotoxic activity toward the tested cell lines (in words): all tested cell lines; for IC50: Homo sapiens, range over all tested cell lines, read-out: IC50 values ranging over the tested cell lines
Description: as §1

[7] = medium containing FBS, NA = not active

| SMILES | IC50 ([1]; medium without FBS) | IC50 ([2]; medium without FBS) | IC50 [3, 7] | IC50 ([4]; medium without FBS) | IC50 ([5]; normal colon epithelial cells) | cytotoxic activity toward the tested cell lines (in words) [6] | IC50 [6] | IC50 ([1]; positive control) | IC50 ([4]; positive control) | IC50 ([2]; positive control) | IC50 ([3]; positive control) | IC50 ([5]; positive control) |
| --- | --- | --- | --- | --- | --- | --- | --- | --- | --- | --- | --- | --- |
| CC[C@@H](O)CC1CCC([C@H](C)C(=O)Oc2ccc(C=O)cc2OC)O1 (some centres unmarked) [Compound 15] | 531 ± 5.46 µM | 175 ± 6.11 µM | 175 ± 3.28 µM | – | – | – | – | – | – | – | – | – |
| CC[C@@H](O)C[C@H]1CC[C@@H]([C@H](C)C(=O)O)O1 [Compound 3, homononactic acid] | 39.9 ± 3.22 µM | 146 ± 2.01 µM | 57 ± 1.88 µM | 99.1 ± 2.66 µM | 1027 ± 8.01 µM | – | – | – | – | – | – | – |
| CCCCOC(=O)[C@@H](C)C1CCC(C[C@H](O)CC)O1 (some centres unmarked) [Compound 10] | 326.8 ± 1.4 µM | 314.6 ± 0.57 µM | 285.1 ± 2.44 µM | 416.5 ± 3.9 µM | 109 ± 3.6 µM | – | – | – | – | – | – | – |
| CCCCCCCCCCCCCCOC(=O)[C@@H](C)C1CCC(C[C@H](O)CC)O1 (some centres unmarked) [Compound 12] | 209 ± 3.25 µM | 127 ± 6.65 µM | 187 ± 4.57 µM | 485.6 ± 3.18 µM | 150 ± 4.03 µM | – | – | – | – | – | – | – |
| CC(C)[C@@H]1NC(=O)[C@H](C)OC(=O)[C@@H](C(C)C)NC(=O)[C@@H](C(C)C)OC(=O)[C@H](C(C)C)NC(=O)[C@H](C)OC(=O)[C@@H](C(C)C)NC(=O)[C@@H](C(C)C)OC(=O)[C@H](C(C)C)NC(=O)[C@H](C)OC(=O)[C@@H](C(C)C)NC(=O)[C@@H](C(C)C)OC1=O [Compound 6, valinomycin] | – | – | – | – | – | significant cytotoxic activities | – | – | – | – | – | – |
| CCOC(=O)[C@@H](C)C1CCC(C[C@@H](C)O)O1 (some centres unmarked) [Compound 8] | 441.3 ± 1.65 µM | 445.9 ± 4.1 µM | – | 847 ± 39.5 µM | 164 ± 3.09 µM | – | – | – | – | – | – | – |
| CCOC(=O)[C@@H](C)[C@@H]1CC[C@H](C[C@H](O)CC)O1 [Compound 4, ethyl homononactate] | 11.8 ± 1.83 µM | 65.09 ± 0.62 µM | 12.3 ± 0.54 µM | 39.6 ± 2.57 µM | 249 ± 4.22 µM | – | – | – | – | – | – | – |
| C[C@H](C(=O)O)[C@@H]1CC[C@H](C[C@@H](C)O)O1 [Compound 2, nonactic acid] | 44.4 ± 2.77 µM | 185.9 ± 1.27 µM | 83.6 ± 2.54 µM | 289 ± 3.54 µM | 1605 ± 14.4 µM | – | – | – | – | – | – | – |
| CC[C@@H](O)CC1CCC([C@H](C)C(=O)Nc2nc3ccccc3s2)O1 (some centres unmarked) [Compound 19] | 169 ± 4.2 µM | 128.5 ± 0.48 µM | – | 270.3 ± 1.09 µM | 80.1 ± 3.82 µM | – | – | – | – | – | – | – |
| CCC[C@H](CC1CCC([C@H](C)C(=O)O)O1)O[Si](C)(C)C(C)(C)C (some centres unmarked) [Compound 20] | 356 ± 7.67 µM | 215 ± 0.76 µM | 323 ± 5.94 µM | 284.3 ± 1.24 µM | 37 ± 1.39 µM | broad toxicity | – | – | – | – | – | – |
| CC[C@@H](O)CC1CCC([C@H](C)C(=O)OCc2ccccc2)O1 (some centres unmarked) [Compound 14] | 73.2 ± 1.05 µM | 89.9 ± 1.09 µM | 41.4 ± 2.84 µM | 111 ± 3.89 µM | 21.1 ± 3.66 µM | broad toxicity | 21.1 to 89.9 µM | – | – | – | – | – |
| CC(C)CC1NC(=O)C2CCCN2C1=O (centres unmarked) [Compound 7, cyclo-(Pro-Leu)] | 102 ± 2.66 µM | 51.1 ± 4.73 µM | 21.7 ± 0.35 µM | 78.8 ± 1.95 µM | 776 ± 11.4 µM | – | – | – | – | – | – | – |
| CCCCCCCCCCOC(=O)[C@@H](C)C1CCC(C[C@@H](C)O)O1 (some centres unmarked) [Compound 11] | 43.2 ± 2.84 µM | 24.29 ± 0.03 µM | 38.2 ± 0.7 µM | 34.1 ± 1.87 µM | 44.2 ± 0.64 µM | – | 24.3 to 44.2 µM | – | – | – | – | – |
| C[C@H](C(=O)N1CCCCC1)C1CCC(C[C@@H](C)O)O1 (some centres unmarked) [Compound 17] | 563 ± 7.35 µM | 199.1 ± 1.9 µM | 339 ± 1.23 µM | 390 ± 10 µM | 180 ± 7.88 µM | – | – | – | – | – | – | – |
| CC(=O)O[C@H]1C(=O)[C@@]2(C)[C@H]([C@H](OC(=O)c3ccccc3)[C@]3(O)C[C@H](OC(=O)[C@H](O)[C@@H](NC(=O)c4ccccc4)c4ccccc4)C(C)=C1C3(C)C)[C@]1(OC(C)=O)CO[C@@H]1C[C@@H]2O [Paclitaxel, reference compound] | – | – | – | – | – | – | – | 0.00569 ± 0.00132 µM | 0.0138 ± 0.00212 µM | 0.0458 ± 0.00179 µM | 0.00931 ± 0.00188 µM | 0.0182 ± 0.00234 µM |
| CC[C@@H](O)C[C@H]1CC[C@@H]([C@H](C)C(=O)O[C@@H](CC)C[C@@H]2CC[C@H]([C@@H](C)C(=O)O)O2)O1 [Compound 5, homononactylhomononactate] | 38.1 ± 2.35 µM | 30.7 ± 0.93 µM | 14.2 ± 0.47 µM | 16.7 ± 1.08 µM | 33.3 ± 3.31 µM | – | – | – | – | – | – | – |
| CCCCCCCCCCCCCCCCCCOC(=O)[C@@H](C)C1CCC(C[C@H](O)CC)O1 (some centres unmarked) [Compound 13] | 322 ± 4.17 µM | 217.6 ± 0.99 µM | 313 ± 3.29 µM | 362.4 ± 0.96 µM | 299.3 ± 1.77 µM | – | – | – | – | – | – | – |
| CC[C@@H](O)CC1CCC([C@H](C)C(=O)Oc2ccc(-c3ccccc3)cc2)O1 (some centres unmarked) [Compound 16] | 165.1 ± 1.23 µM | 67.32 ± 0.25 µM | 105 ± 2.58 µM | 156 ± 3.56 µM | 110 ± 1.36 µM | – | – | – | – | – | – | – |
| CC[C@@H](O)CC1CCC([C@H](C)C(=O)OC(C)C)O1 (some centres unmarked) [Compound 9] | 113 ± 3.68 µM | 115 ± 3.66 µM | 69.4 ± 3.9 µM | 171 ± 5.08 µM | 29 ± 3.68 µM | broad toxicity | – | – | – | – | – | – |
| CC[C@H](O)CC(=O)CC[C@H](O)C(C)C(=O)O (some centres unmarked) [Compound 1] | 1.98 ± 1.04 µM | 45 ± 1.21 µM | 1.56 ± 0.21 µM | 5.44 ± 1.33 µM | 27.9 ± 4.7 µM | less activity | – | – | – | – | – | – |
| CC[C@@H](O)CC1CCC([C@H](C)C(=O)Nc2ccccc2N)O1 (some centres unmarked) [Compound 18] | 235.7 ± 1.31 µM | 108 ± 5.22 µM | 402.9 ± 0.69 µM | 302.4 ± 1.83 µM | 55.7 ± 7.65 µM | broad toxicity | – | – | – | – | – | – |
